Earlier results on one compound are cited in patent US20110070305A1, “SUSTAINED RELEASE PHARMACEUTICAL COMPOSITION CONTAINING MEBICAR” (ALPHARX INC., priority 2009, published 2011).

For data set [1] the following is noted: orally administered.

Structures are written as SMILES.

For `CN1C(=O)N(C)C2C1N(C)C(=O)N2C` (stereo not drawn) [Mebicar], the half-life result in data set [1] was “approximately 3 hours”. Moreover, for the setting “alcohol and most polar organic solvents”, the “solubility in alcohol and most polar organic solvents” value was “soluble”. In addition, the solubility in water result (water, ambient temperature) is “about 50%”.
